Reference: US9573970B2, “4-{4-[(1E)-4-(2,9-diazaspiro[5.5]undec-2-yl)but-1-en-1-yl]-2-methylbenzyl}-5-(propan-2-yl)-1H-pyrazol-3-yl beta-D glucopyranoside acetate” (Eli Lilly and Company, priority 2013, dated 2017)

Experiments:
Type in all cases: cell-based
human SGLT1 = molecular target: T1, human SGLT1 (Homo sapiens, UniProt P13866); assay: Sodium-dependent 14C-AMG uptake in CHO-K1 cells expressing human SGLT1
T1 sequence (P13866 1-664): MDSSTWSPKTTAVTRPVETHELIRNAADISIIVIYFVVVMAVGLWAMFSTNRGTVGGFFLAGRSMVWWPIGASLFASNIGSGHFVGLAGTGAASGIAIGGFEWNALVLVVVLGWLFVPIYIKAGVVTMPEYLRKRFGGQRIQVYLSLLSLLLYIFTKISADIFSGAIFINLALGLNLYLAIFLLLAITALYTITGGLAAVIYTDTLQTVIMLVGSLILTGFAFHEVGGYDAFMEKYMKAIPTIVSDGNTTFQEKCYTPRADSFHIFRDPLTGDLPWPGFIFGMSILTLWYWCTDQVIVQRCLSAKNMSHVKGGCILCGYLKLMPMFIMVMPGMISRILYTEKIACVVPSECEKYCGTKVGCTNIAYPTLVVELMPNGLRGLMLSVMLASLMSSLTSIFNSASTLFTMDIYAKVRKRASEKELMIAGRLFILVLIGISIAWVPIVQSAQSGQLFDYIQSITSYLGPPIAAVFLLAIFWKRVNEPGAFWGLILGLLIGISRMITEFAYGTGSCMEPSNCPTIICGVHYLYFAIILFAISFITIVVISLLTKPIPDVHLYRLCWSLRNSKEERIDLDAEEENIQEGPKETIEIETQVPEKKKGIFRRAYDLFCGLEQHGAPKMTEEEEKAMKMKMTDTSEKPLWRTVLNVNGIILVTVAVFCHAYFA
Source text: (§1) The cDNA encoding human SGLT1 (slc5a1, NM_000343), human SGLT2 (slc5a2, NM_003041) and mouse SGLT1 (slc5a1, NM_019810.4) are purchased from Openbiosystems, Invitrogen and Openbiosystems, respectively. The cDNA is cloned into pcDNA3.1+ for mammalian expression and is stably transfected into Chinese hamster ovary (CHO)-K1 cells using standard mammalian transfection procedures. An SGLT-expressing sub-clone of each over-expressing cell line is selected based on resistance to neomycin (Geneticin, Invitrogen) and activity in the ^14C-α-methyl-D-glucopyranoside (^14C-AMG) uptake assay (see below). Stable SGLT-expressing cells are maintained using standard cell culture techniques.
(§2) The SGLT activity is measured as sodium-dependent ^14C-AMG uptake in the above cell lines described as follows. One hundred μL of culture medium containing 30,000 cells are seeded to each well of a 96-well BioCoat poly-D-lysine plate (Becton Dickson) and cultured at 37° C. overnight. The culture medium is aspirated and cells are washed twice with 200 μL of Reaction Buffer (140 mM NaCl, 2 mM KCl, 1 mM CaCl2, MgCl2, and 14 mM N-2-hydroethylpiperrazine-N′-2-ethanesulfonic acid (Hepes), pH 7.5). The excess buffer is tapped out onto paper towels. Thirty-five μL of Reaction Buffer are added to each well. […] After mixing, the scintillation signal in the plate is counted in a MicroBeta (PerkinElmer). […]

human SGLT2 = molecular target: T2, human SGLT2 (Homo sapiens, UniProt P31639); assay: Sodium-dependent 14C-AMG uptake in CHO-K1 cells expressing human SGLT2; details: n = 10
T2 sequence (P31639 1-672): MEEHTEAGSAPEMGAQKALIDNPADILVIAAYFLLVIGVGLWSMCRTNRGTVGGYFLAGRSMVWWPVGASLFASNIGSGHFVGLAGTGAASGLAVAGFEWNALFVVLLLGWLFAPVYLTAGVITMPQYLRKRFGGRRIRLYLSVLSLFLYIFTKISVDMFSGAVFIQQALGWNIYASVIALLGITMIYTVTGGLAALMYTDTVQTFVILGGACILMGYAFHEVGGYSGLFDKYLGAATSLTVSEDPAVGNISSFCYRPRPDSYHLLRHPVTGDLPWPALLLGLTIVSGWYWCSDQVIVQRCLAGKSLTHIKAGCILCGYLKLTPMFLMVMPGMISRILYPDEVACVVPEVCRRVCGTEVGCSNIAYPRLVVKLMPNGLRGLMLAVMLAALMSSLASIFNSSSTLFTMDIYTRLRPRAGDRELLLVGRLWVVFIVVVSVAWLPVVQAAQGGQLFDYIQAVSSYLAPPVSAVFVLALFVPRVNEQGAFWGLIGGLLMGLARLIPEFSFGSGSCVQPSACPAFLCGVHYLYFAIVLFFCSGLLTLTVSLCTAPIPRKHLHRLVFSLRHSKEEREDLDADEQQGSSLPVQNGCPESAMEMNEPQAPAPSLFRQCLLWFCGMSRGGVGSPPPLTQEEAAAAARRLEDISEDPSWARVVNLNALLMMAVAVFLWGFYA
Source text: as §1, §2

mouse SGLT1 = molecular target: T3, mouse SGLT1 (Mus musculus, UniProt Q8C3K6); assay: Sodium-dependent 14C-AMG uptake in CHO-K1 cells expressing mouse SGLT1; details: n = 9
T3 sequence (Q8C3K6 1-665): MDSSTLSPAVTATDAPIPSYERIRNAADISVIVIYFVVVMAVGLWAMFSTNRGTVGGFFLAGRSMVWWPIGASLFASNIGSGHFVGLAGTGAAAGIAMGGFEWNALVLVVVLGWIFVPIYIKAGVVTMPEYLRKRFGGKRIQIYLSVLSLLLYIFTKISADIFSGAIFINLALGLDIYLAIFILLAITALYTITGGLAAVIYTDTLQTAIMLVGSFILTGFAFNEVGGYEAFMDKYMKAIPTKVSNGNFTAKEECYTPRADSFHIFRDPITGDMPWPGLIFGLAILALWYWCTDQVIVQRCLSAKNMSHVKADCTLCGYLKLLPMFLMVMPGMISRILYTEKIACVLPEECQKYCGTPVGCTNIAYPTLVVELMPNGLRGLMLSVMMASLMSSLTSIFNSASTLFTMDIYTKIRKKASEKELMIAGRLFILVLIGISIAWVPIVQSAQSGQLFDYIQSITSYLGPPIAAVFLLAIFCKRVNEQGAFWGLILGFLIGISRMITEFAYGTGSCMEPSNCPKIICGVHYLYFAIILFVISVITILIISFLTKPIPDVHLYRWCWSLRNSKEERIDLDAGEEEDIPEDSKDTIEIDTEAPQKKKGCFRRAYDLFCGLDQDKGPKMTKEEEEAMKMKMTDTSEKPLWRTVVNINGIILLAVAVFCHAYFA
Source text: as §1, §2

IC50 (human SGLT1; 14C-AMG uptake, CHO-K1 cells, n = 10): 26 ± 20 nM
IC50 (human SGLT2): 6100 ± 1200 nM
IC50 (mouse SGLT1): 10 ± 2 nM
Structure (SMILES): Cc1cc(/C=C/CCN2CCCC3(CCNCC3)C2)ccc1Cc1c(O[C@@H]2O[C@H](CO)[C@@H](O)[C@H](O)[C@H]2O)n[nH]c1C(C)C [Example 1 (free base), 4-{4-[(1E)-4-(2,9-diazaspiro[5.5]undec-2-yl)but-1-en-1-yl]-2-methylbenzyl}-5-(propan-2-yl)-1H-pyrazol-3-yl beta-D-glucopyranoside]
Potency at SGLT1 relative to human SGLT2 (human SGLT1; in vitro, from Table 2): more potent at human and mouse SGLT1 than at human SGLT2
